Patent publication EP4711366A1, “PYRIMIDO MACROHETEROCYCLIC COMPOUND AS WEE1-YES DUAL-TARGET INHIBITOR AND USE THEREOF” (Mindrank AI Ltd., priority 2023, dated 2024)

Tests used:
YES1 kinase = YES1 kinase (Homo sapiens, UniProt P07947); assay: YES1 protein kinase inhibitory activity assay (HTRF); format: biochemical; conditions: for IC50: HTRF, YES1 kinase, ATP 10 µM
Procedure: In this experiment, the capability of the compound MRANK-106 of the present disclosure to inhibit kinase activity was assessed by an HTRF method using a drug screening system based on the YES1 kinase.
Table 3-1. Information about reagents and consumables
The enzymatic activity conditions and HTRF system formulation are shown in Table 3-3; the experimental conditions for the kinase activity assay are shown in Table 3-4. Table 3-3. HTRF system formulation
Table 3-4. The experimental conditions for the kinase activity assay
The test compound MRANK-106 was dissolved in DMSO, and the solution was vortexed and shaken for thorough mixing. The solution was serially diluted 3-fold with DMSO, with the initial concentration being 503 nM.
① A 2× ATP/substrate solution and a 2× kinase solution were formulated using a kinase reaction buffer.
② 50 nL of the compound dilution was transferred to a 384 detection plate using Echo 655. After centrifugation, 2.5 µL of a 2× kinase solution was added to the 384 detection plate. The plate was centrifuged at 1000 rpm for 1 min and incubated at 25 °C for 10 min.
② 2.5 µL of the 2× substrate and ATP solution was added to the 384 detection plate, and the plate was centrifuged at 1000 rpm for 1 min and incubated at 25 °C for 60 min.
④ A 2× XL665 and antibody detection reagent was formulated using a detection buffer.
⑤ 5 µL of a kinase detection reagent was added to the detection plate, and the plate was incubated at 25 °C. The plate was centrifuged at 1000 rpm for 1 min and incubated at 25 °C for 1 h.
⑥ The fluorescence signals at 620 nm (Cryptate) and 665 nm (XL665) were read using a BMG high-throughput drug-screening multi-mode microplate reader.
With the reading of the negative control set as an inhibition rate of 0% and the reading of the positive control set as an inhibition rate of 100%, the inhibition rate of each test solution was calculated using the following formula: [formula] • Datapositive control: the average of the positive control well values • Datanegative control : the average of the negative control well values
The IC50 (half maximal inhibitory concentration) of the compound was obtained using the following nonlinear fitting formulas: Y = Bottom + (Top−Bottom)/(1+10^(∧)((LogIC50−X)*HillSlope)) [formula] • X: the log value of the compound concentration • Y: the inhibition rate (% inh) of the compound
The Z' factor calculation equation: Z′ = 1−3(SDmin+SDmax)/(AVEmax−AVEmin) [formula] where: • Min is the positive control Data value, and Max is the negative control DMSO Data value; • SD stands for standard deviation, and AVE stands for average.

A427 cells = assay: Tumor cell proliferation inhibitory activity assay (CCK-8); format: cell-based, Human; conditions: for IC50: Homo sapiens, A-427, 72 h compound incubation, CCK-8
Procedure: Human lung cancer A427 cells are cancer cells reported to be sensitive to wee1 inhibitors. In this assay, the anti-cancer effects of the compounds of the present disclosure were verified by assessing the activity of the test substances in inhibiting A427 cell proliferation.
A427 cells were cultured according to the cell culture instructions, and cells in the logarithmic growth phase were collected, counted, resuspended in a complete culture medium, and inoculated into a 96-well plate at a cell concentration of 100 µL/3000 cells/well. The cells were incubated in an incubator at 37 °C with 100% relative humidity and 5% CO2 for 24 h.
The compounds to be tested were dissolved in DMSO and diluted 4-fold with a culture medium from 10 µM to 10 concentration gradients.
The culture medium waste was pipetted off, and 100 µL of the formulated culture medium of the compound to be tested was added to each well. The cells were incubated in an incubator at 37 °C with 100% relative humidity and 5% CO2 for 72 h.
The plate was taken out, the CCK-8 reagent was added at 10 µL/well, and the plate was incubated in an incubator at 37 °C for 2-4 h.
The cell growth inhibition rates of the drugs were calculated using the following formula: Cell growth inhibition rate% = [(Ac−As)/(Ac−Ab)] × 100% [formula] • As: the OA of the samples (cells + CCK-8 + compounds to be tested) • Ac: the OA of the normal growth cell control (cells + CCK-8) • Ab: the OA of the blank control (culture medium + CCK-8)
IC50 curve fitting was performed using the software Graphpad Prism 6 and the calculation formula XY-analysis/Nonlinear regression(curve fit)/Dose response-Inhibition/log(inhibitor)vs. response-Variable slope(four parameters), and the IC50 values were calculated. Table 1. Data analysis and results for some representative compounds

Chain of YES1 kinase (P07947 whole entry): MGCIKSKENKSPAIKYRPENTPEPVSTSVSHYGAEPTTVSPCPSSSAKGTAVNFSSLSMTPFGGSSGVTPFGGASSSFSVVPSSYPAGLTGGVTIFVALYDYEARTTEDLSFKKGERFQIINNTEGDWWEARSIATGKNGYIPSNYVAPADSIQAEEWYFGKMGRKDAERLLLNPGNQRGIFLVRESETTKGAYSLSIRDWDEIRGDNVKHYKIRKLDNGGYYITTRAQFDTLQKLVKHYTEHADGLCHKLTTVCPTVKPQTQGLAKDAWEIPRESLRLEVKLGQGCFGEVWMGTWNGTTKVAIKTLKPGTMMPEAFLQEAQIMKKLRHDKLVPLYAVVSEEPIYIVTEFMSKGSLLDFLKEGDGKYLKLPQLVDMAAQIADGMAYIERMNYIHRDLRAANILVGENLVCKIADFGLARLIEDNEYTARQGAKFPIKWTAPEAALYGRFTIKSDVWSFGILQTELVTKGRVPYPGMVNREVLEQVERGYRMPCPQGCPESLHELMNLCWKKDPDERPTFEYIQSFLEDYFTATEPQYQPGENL

inhibition of the Yes target (in words) (YES1 kinase; summary statement on the assay results) | SMILES | IC50 (YES1 kinase) [nM] | IC50 (A427 cells) [nM] | activity in inhibiting cancer cell proliferation compared with reference compound Debio 0123 or ZN-c3 (A427 cells; comparison in words)
strongly inhibited | Cc1cc(Nc2ncc3c(=O)n4n(c3n2)-c2cccc(n2)[C@](C)(O)CCC=CC4)ccc1OC1CCN(C)CC1 (stereo in doubt) [Compound IE, (R,Z)-12-hydroxy-12-methyl-2-((3-methyl-4-((1-methylpiperidin-4-yl)oxy)phenyl)amino)-7,10,11,12-tetrahydro-5H-13,17-(azeno)pyrimido[4',5':3,4]pyrazolo[1,2-a] [1,2]diazacyclotridecin-5-one] | 3.05 | 13 | several times to several dozen times higher
– | C=CCn1c(=O)c2cnc(Nc3ccc(N4CCN(C)CC4)cc3)nc2n1-c1ccc2c(n1)C(O)(CC)CC2 (stereo not drawn) [ZN-c3, reference compound] | > 500 | 129 | –
